From patent US9475817B2 (BRISTOL-MYERS SQUIBB COMPANY, priority 2012, dated 2016)
Structures can show the parent of a compound that is named as a salt.

How the values were obtained:
[1] = molecular target: CK1ε (Homo sapiens (Human), UniProt P49674); experiment: CK1ε kinase assay (Caliper LabChip, fluoresceinated peptide substrate); format: biochemical; details: 200 pM CK1ε, 50 μM ATP, 1.5 μM peptide substrate, 22 hours room temperature
Protocol: (§1) CK1ε and CK1δ Kinase Assays
(§2) The kinase assay was performed in V-bottom 384-well plates. […] The reaction was incubated at room temperature for 22 hours and terminated by adding 45 μl of 35 mM EDTA to each sample. […] Compounds were dissolved at 10 mM in dimethylsulfoxide (DMSO) and evaluated at eleven concentrations. IC50 values were derived by non-linear regression analysis.

[2] = molecular target: CK1δ (Homo sapiens (Human), UniProt P48730); experiment: CK1δ kinase assay (Caliper LabChip, fluoresceinated peptide substrate); format: biochemical; details: 200 pM CK1δ, 50 μM ATP, 1.5 μM peptide substrate, 22 hours room temperature
Protocol: as §1, §2

Chain of CK1δ (P48730 whole entry): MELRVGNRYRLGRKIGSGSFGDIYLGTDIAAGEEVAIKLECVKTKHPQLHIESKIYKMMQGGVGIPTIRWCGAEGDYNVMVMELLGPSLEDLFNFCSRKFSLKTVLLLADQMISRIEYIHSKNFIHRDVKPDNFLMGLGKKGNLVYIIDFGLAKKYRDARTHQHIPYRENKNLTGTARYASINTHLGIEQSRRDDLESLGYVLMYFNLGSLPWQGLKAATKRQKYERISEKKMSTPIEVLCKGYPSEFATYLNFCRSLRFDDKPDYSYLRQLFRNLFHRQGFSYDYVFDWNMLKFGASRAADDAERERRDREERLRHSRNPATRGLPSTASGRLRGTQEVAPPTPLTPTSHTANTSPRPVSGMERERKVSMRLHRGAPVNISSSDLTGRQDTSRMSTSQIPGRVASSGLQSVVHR
Chain of CK1ε (P49674 whole entry): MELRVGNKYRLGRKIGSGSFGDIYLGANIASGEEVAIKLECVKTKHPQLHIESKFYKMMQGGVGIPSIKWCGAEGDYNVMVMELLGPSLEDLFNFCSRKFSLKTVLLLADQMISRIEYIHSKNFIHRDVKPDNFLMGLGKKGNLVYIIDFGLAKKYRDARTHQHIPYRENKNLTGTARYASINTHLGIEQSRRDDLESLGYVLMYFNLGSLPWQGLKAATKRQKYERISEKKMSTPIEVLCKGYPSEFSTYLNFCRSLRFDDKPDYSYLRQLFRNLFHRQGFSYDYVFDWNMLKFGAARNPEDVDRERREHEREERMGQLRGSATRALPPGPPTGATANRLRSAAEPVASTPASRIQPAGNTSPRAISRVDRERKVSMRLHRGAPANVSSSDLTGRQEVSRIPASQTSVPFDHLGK

SMILES | IC50 [1] | IC50 [2]
Cn1nc(-c2ccc(F)cc2)c(-c2ccc3nc(NC(=O)c4ccncc4)cn3n2)c1C1CCN(Cc2cocn2)CC1 [Compound 172, N-(6-(3-(4-fluorophenyl)-1-methyl-5-(1-(oxazol-4-ylmethyl)piperidin-4-yl)-1H-pyrazol-4-yl)imidazo[1,2-b]pyridazin-2-yl) isonicotinamide] | 10.4 nM | 4.5 nM
Cn1nc(-c2ccc(F)cc2)c(-c2ccc3nc(NC(=O)c4ccncc4)cn3n2)c1C1CCN(Cc2nccs2)CC1 [Compound 173, N-(6-(3-(4-fluorophenyl)-1-methyl-5-(1-(thiazol-2-ylmethyl)piperidin-4-yl)-1H-pyrazol-4-yl)imidazo[1,2-b]pyridazin-2-yl) isonicotinamide] | 6.4 nM | 1.5 nM
Cc1nc(-c2cccnc2)sc1C(=O)Nc1cn2nc(-c3c(-c4ccc(F)cc4)nn(C)c3C3CCN(C)CC3)ccc2n1 [Compound 175, N-(6-(3-(4-Fluorophenyl)-1-methyl-5-(1-methylpiperidin-4-yl)-1H-pyrazol-4-yl)imidazo[1,2-b]pyridazin-2-yl)-4-methyl-2-(pyridin-3-yl)thiazole-5-carboxamide] | 4 nM | 3 nM
Cc1nc(-c2cccnc2)sc1C(=O)Nc1cn2nc(-c3c(-c4ccc(F)cc4)nn(C)c3C3CCN(CCC(F)(F)F)CC3)ccc2n1 [Compound 177, N-(6-(3-(4-fluorophenyl)-1-methyl-5-(1-(3,3,3-trifluoropropyl)piperidin-4-yl)-1H-pyrazol-4-yl)imidazo[1,2-b]pyridazin-2-yl)-4-methyl-2-(pyridin-3-yl)thiazole-5-carboxamide] | 12.2 nM | 0.7 nM
Cc1nc(-c2ccncc2)sc1C(=O)Nc1cn2nc(-c3c(-c4ccc(F)cc4)nn(C)c3C3CCN(C)CC3)ccc2n1 [Compound 180, N-(6-(3-(4-Fluorophenyl)-1-methyl-5-(1-methylpiperidin-4-yl)-1H-pyrazol-4-yl)imidazo[1,2-b]pyridazin-2-yl)-4-methyl-2-(pyridin-4-yl)thiazole-5-carboxamide] | 7.1 nM | 2.1 nM
Cc1nc(-c2ccncc2)sc1C(=O)Nc1cn2nc(-c3c(-c4ccc(F)cc4)nn(C)c3C3CCN(CCC(F)(F)F)CC3)ccc2n1 [Compound 181, N-(6-(3-(4-fluorophenyl)-1-methyl-5-(1-(3,3,3-trifluoropropyl)piperidin-4-yl)-1H-pyrazol-4-yl)imidazo[1,2-b]pyridazin-2-yl)-4-methyl-2-(pyridin-4-yl)thiazole-5-carboxamide] | 14.3 nM | 1.1 nM
Cn1cc(-c2ccc3nc(Nc4ncccn4)cn3n2)c(-c2ccc(F)cc2)n1 [Compound 185, 6-(3-(4-Fluorophenyl)-1-methyl-1H-pyrazol-4-yl)-N-(pyrimidin-2-yl)imidazo[1,2-b]pyridazin-2-amine] | 48 nM | 16 nM
Cn1cc(-c2ccc3nc(NC(=O)Nc4ccccc4)cn3n2)c(-c2ccc(F)cc2)n1 [Compound 186, 1-(6-(3-(4-Fluorophenyl)-1-methyl-1H-pyrazol-4-yl)imidazo[1,2-b]pyridazin-2-yl)-3-phenylurea] | 114 nM | 14.6 nM
Cn1cc(-c2ccc3nc(NC(=O)OCc4ccccc4)cn3n2)c(-c2ccc(F)cc2)n1 [Compound 187, Benzyl 6-(3-(4-fluorophenyl)-1-methyl-1H-pyrazol-4-yl)imidazo[1,2-b]pyridazin-2-ylcarbamate] | > 2000 nM | 51.5 nM
Cn1cc(-c2ccc3nc(NC(=O)c4ccccc4)c(Br)n3n2)c(-c2ccc(F)cc2)n1 [Compound 189, N-(3-Bromo-6-(3-(4-fluorophenyl)-1-methyl-1H-pyrazol-4-yl)imidazo[1,2-b]pyridazin-2-yl)benzamide] | 257 nM | 38.8 nM
Cn1cc(-c2ccc3nc(NC(=O)c4ccccc4)c(C#N)n3n2)c(-c2ccc(F)cc2)n1 [Compound 190, N-(3-Cyano-6-(3-(4-fluorophenyl)-1-methyl-1H-pyrazol-4-yl)imidazo[1,2-b]pyridazin-2-yl)benzamide] | 14.5 nM | 4.2 nM
Cn1cc(-c2ccc3nc(NC(=O)c4ccccc4)c(Cl)n3n2)c(-c2ccc(F)cc2)n1 [Compound 191, N-(3-Chloro-6-(3-(4-fluorophenyl)-1-methyl-1H-pyrazol-4-yl)imidazo[1,2-b]pyridazin-2-yl)benzamide] | 153 nM | 24.5 nM
Cn1cc(-c2ccc3nc(NC(=O)c4ccccc4)c(F)n3n2)c(-c2ccc(F)cc2)n1 [Compound 192, N-(3-Fluoro-6-(3-(4-fluorophenyl)-1-methyl-1H-pyrazol-4-yl)imidazo[1,2-b]pyridazin-2-yl)benzamide] | 23.3 nM | 5.6 nM
Cn1cc(-c2ccc3nc(NC(=O)c4ccncc4)c(Br)n3n2)c(-c2ccc(F)cc2)n1 [Compound 193, N-(3-Bromo-6-(3-(4-fluorophenyl)-1-methyl-1H-pyrazol-4-yl)imidazo[1,2-b]pyridazin-2-yl)isonicotinamide] | 102 nM | 17 nM
Cn1cc(-c2ccc3nc(NC(=O)c4ccncc4)c(-c4ccncc4)n3n2)c(-c2ccc(F)cc2)n1 [Compound 194, N-(6-(3-(4-Fluorophenyl)-1-methyl-1H-pyrazol-4-yl)-3-(pyridin-4-yl)imidazo[1,2-b]pyridazin-2-yl)isonicotinamide, 2 TFA] | 554 nM | 97 nM
Cc1c(NC(=O)c2ccccc2)nc2ccc(-c3cn(C)nc3-c3ccc(F)cc3)nn12 [Compound 195, N-(6-(3-(4-Fluorophenyl)-1-methyl-1H-pyrazol-4-yl)-3-methylimidazo[1,2-b]pyridazin-2-yl)benzamide, 2 TFA] | 137 nM | 54 nM
Cn1nc(-c2ccc(F)cc2)c(-c2ccc3nc(NC(=O)c4ccnc(N5CCOCC5)c4)cn3n2)c1C1CCOCC1 [Compound 198, N-(6-(3-(4-Fluorophenyl)-1-methyl-5-(tetrahydro-2H-pyran-4-yl)-1H-pyrazol-4-yl)imidazo[1,2-b]pyridazin-2-yl)-2-morpholinoisonicotinamide] | 4.8 nM | 0.5 nM

Now those with a lower IC50 [1], led by results:

IC50 [1] | IC50 [2] | SMILES
1.8 nM | 2.5 nM | Cc1nc(-c2cccnc2)sc1C(=O)Nc1cn2nc(-c3c(-c4ccc(F)cc4)nn(C)c3C3CCNCC3)ccc2n1 [Compound 174, N-(6-(3-(4-Fluorophenyl)-1-methyl-5-(piperidin-4-yl)-1H-pyrazol-4-yl)imidazo[1,2-b]pyridazin-2-yl)-4-methyl-2-(pyridin-3-yl)thiazole-5-carboxamide]
0.4 nM | 1 nM | Cc1nc(-c2cccnc2)sc1C(=O)Nc1cn2nc(-c3c(-c4ccc(F)cc4)nn(C)c3C3CCN(Cc4ccon4)CC3)ccc2n1 [Compound 176, N-(6-(3-(4-fluorophenyl)-5-(1-(isoxazol-3-ylmethyl)piperidin-4-yl)-1-methyl-1H-pyrazol-4-yl)imidazo[1,2-b]pyridazin-2-yl)-4-methyl-2-(pyridin-3-yl)thiazole-5-carboxamide]
1.3 nM | 0.2 nM | Cc1nc(-c2cccnc2)sc1C(=O)Nc1cn2nc(-c3c(-c4ccc(F)cc4)nn(C)c3C3CCN(CC(N)=O)CC3)ccc2n1 [Compound 178, N-(6-(5-(1-(2-Amino-2-oxoethyl)piperidin-4-yl)-3-(4-fluorophenyl)-1-methyl-1H-pyrazol-4-yl)imidazo[1,2-b]pyridazin-2-yl)-4-methyl-2-(pyridin-3-yl)thiazole-5-carboxamide]
1.5 nM | 1.4 nM | Cc1nc(-c2ccncc2)sc1C(=O)Nc1cn2nc(-c3c(-c4ccc(F)cc4)nn(C)c3C3CCNCC3)ccc2n1 [Compound 179, N-(6-(3-(4-Fluorophenyl)-1-methyl-5-(piperidin-4-yl)-1H-pyrazol-4-yl)imidazo[1,2-b]pyridazin-2-yl)-4-methyl-2-(pyridin-4-yl)thiazole-5-carboxamide]
0.9 nM | 1.7 nM | Cc1nc(-c2ccncc2)sc1C(=O)Nc1cn2nc(-c3c(-c4ccc(F)cc4)nn(C)c3C3CCN(Cc4ccon4)CC3)ccc2n1 [Compound 182, N-(6-(3-(4-fluorophenyl)-5-(1-(isoxazol-3-ylmethyl)piperidin-4-yl)-1-methyl-1H-pyrazol-4-yl)imidazo [1,2-b]pyridazin-2-yl)-4-methyl-2-(pyridin-4-yl)thiazole-5-carboxamide]
2.4 nM | 0.4 nM | Cc1nc(-c2ccncc2)sc1C(=O)Nc1cn2nc(-c3c(-c4ccc(F)cc4)nn(C)c3C3CCN(CCC#N)CC3)ccc2n1 [Compound 183, N-(6-(5-(1-(2-Cyanoethyl)piperidin-4-yl)-3-(4-fluorophenyl)-1-methyl-1H-pyrazol-4-yl)imidazo[1,2-b]pyridazin-2-yl)-4-methyl-2-(pyridin-4-yl)thiazole-5-carboxamide]
1.2 nM | 0.3 nM | Cc1nc(-c2ccncc2)sc1C(=O)Nc1cn2nc(-c3c(-c4ccc(F)cc4)nn(C)c3C3CCN(CC(N)=O)CC3)ccc2n1 [Compound 184, N-(6-(5-(1-(2-Amino-2-oxoethyl)piperidin-4-yl)-3-(4-fluorophenyl)-1-methyl-1H-pyrazol-4-yl)imidazo[1,2-b]pyridazin-2-yl)-4-methyl-2-(pyridin-4-yl)thiazole-5-carboxamide]
2 nM | 0.2 nM | Cn1nc(-c2ccc(F)cc2)c(-c2ccc3nc(NC(=O)c4ccnc(F)c4)cn3n2)c1C1CCOCC1 [Compound 196, 2-Fluoro-N-(6-(3-(4-fluorophenyl)-1-methyl-5-(tetrahydro-2H-pyran-4-yl)-1H-pyrazol-4-yl)imidazo[1,2-b]pyridazin-2-yl)isonicotinamide]
1.8 nM | 0.3 nM | Cn1nc(-c2ccc(F)cc2)c(-c2ccc3nc(NC(=O)c4ccncc4)cn3n2)c1C1CCOCC1 [Compound 197, N-(6-(3-(4-Fluorophenyl)-1-methyl-5-(tetrahydro-2H-pyran-4-yl)-1H-pyrazol-4-yl)imidazo[1,2-b]pyridazin-2-yl)isonicotinamide]
